Data on 56 compounds can be found in US6610692B1, “Thrombin inhibitors” (Merck & Co., Inc., priority 1998, dated 2003).

The first series addresses human α-thrombin (Homo sapiens, UniProt P00734). Description: In vitro assay for determining proteinase inhibition: thrombin (sar-PR-pna or Z-GPR-afc substrate). It counts as biochemical.
Conditions: not given
The procedure: In vitro Assay for Determining Proteinase Inhibition
The assays were carried out at 25° C. in 0.05 M TRIS buffer pH 7.4, 0.15 M NaCl, 0.1% PEG. Trypsin assays also contained 1 mM CaCl2.
Concentrations of stock solutions of Z-GPR-afc were determined from measurements of absorbance at 380 nm of the 7-amino-4-trifluoromethyl coumarin produced upon complete hydrolysis of an aliquot of the stock solution by thrombin.
Times required to achieve equilibration between enzyme and inhibitor were determined in control experiments. Initial velocities of product formation in the absence (Vo) or presence of inhibitor (Vi) were measured. Assuming competitive inhibition, and that unity is negligible compared Km/[S], [I]/e, and [I]/e (where [S], [I], and e respectively represent the total concentrations, of substrate, inhibitor and enzyme), the equilibrium constant (Ki) for dissociation of the inhibitor from the enzyme can be obtained from the dependence of Vo, Vi on [I] shown in equation 1: […]
On to `Cc1cnc(NCCc2ccccn2)c(=O)n1CC(=O)NCc1cnc2[nH]ccc2c1`, for which the inhibition constant (Ki) is below 20 nM.

Still in this series, the particulars now being: Table 1; 25° C., 0.05 M TRIS buffer pH 7.4, 0.15 M NaCl, 0.1% PEG; read-out: Inhibitory activity (Ki).
Regarding `Cc1cnc(NCC2(c3ccccn3)CC2)c(=O)n1CC(=O)NCc1ccc2[nH]cnc2c1` [drawing 18], the Ki is below 20 nM.
Same read-out and setting: next, `Cc1noc2ccc(CNC(=O)Cn3c(C)cnc(NCCc4ccccn4)c3=O)cc12`: above 20 nM; `CCC[C@@H]1Cc2cc(C)n(CC(=O)NCc3ccc4[nH]ccc4c3)c(=O)c2NC1=O`: below 20 nM; `Cc1cnc(NCCc2ccccn2)c(=O)n1CC(=O)NCc1ccc2[nH]cc(Cl)c2c1` [drawing 38]: below 20 nM.
`Cc1cnc(NCC(F)(F)CC2CC2)c(=O)n1CC(=O)NCc1ccc2[nH]ccc2n1`: the Ki was below 20 nM.
Still for that read-out and setting: the figure for `Cc1cnc(NCCc2ccccn2)c(=O)n1CC(=O)NCc1ccc2[nH]ncc2c1` is below 20 nM; for `Cc1cnc(NCCc2ccc3c(c2)OCO3)c(=O)n1CC(=O)NCc1ccc2[nH]ccc2c1` it is below 20 nM.
The same measure, in the same setting: the figure for `Cc1cnc(NCCc2ccccc2)c(=O)n1CC(=O)NCc1ccc2[nH]nc(N)c2c1` is above 20 nM; for `Cc1cnc(NCC(F)(F)c2ccccn2)c(=O)n1CC(=O)NCc1ccc2[nH]ccc2c1` it is below 20 nM; for `Cc1cnc(NCC(F)(F)c2ccccn2)c(=O)n1CC(=O)NCc1ccc2[nH]cnc2c1` it is below 20 nM.
The same measure, in the same setting: next, `Cc1cnc(NCCc2ccccc2)c(=O)n1CC(=O)NCc1ccc2[nH]cc(Cl)c2c1` [drawing 39]: below 20 nM.
For `Cc1cc(SCC2CCC2)c(N)c(=O)n1CC(=O)NCc1cnc2[nH]cnc2c1`, the Ki is above 20 nM.
Same read-out and setting: the figure for `Cc1cnc(NCC(F)(F)c2ccccc2)c(=O)n1CC(=O)NCc1cnc2[nH]cnc2c1` is below 20 nM; for `Cc1cnc(NCCc2ccccn2)c(=O)n1CC(=O)NCc1cc2c(Cl)c[nH]c2cn1` it is below 20 nM; for `Cc1cc2c(c(=O)n1CC(=O)NCc1ccc3[nH]ccc3n1)NC(=O)[C@H](CC1CC1)C2` it is below 20 nM.
As to `Cc1cc2c(c(=O)n1CC(=O)NCc1ccc3[nH]ccc3c1)NC(=O)[C@H](CC1CCC1)C2`, the Ki is below 20 nM.
On the same count and under the same terms, next, `Cc1cnc(NCCc2ccccc2)c(=O)n1CC(=O)NCc1cc2c(Cl)c[nH]c2cn1`: below 20 nM.
The same measure, in the same setting: the figure for `Cc1cnc(NCCc2cccnc2)c(=O)n1CC(=O)NCc1ccc2[nH]ccc2c1` is below 20 nM.
On the same count and under the same terms, next, `Cc1nc2cc(CNC(=O)Cn3c(C)cnc(NCC(F)(F)c4ccccc4)c3=O)ccc2[nH]1`: above 20 nM; `Cc1nc2[nH]nnc2cc1CNC(=O)Cn1c(C)cnc(NCCc2ccccc2)c1=O`: above 20 nM; `Cc1cc(SCC2CC2)c(N)c(=O)n1CC(=O)NCc1ccc2[nH]cnc2c1`: above 20 nM.
In the case of `Cc1cnc(NCCCCC2CC2)c(=O)n1CC(=O)NCc1cc2cc[nH]c2cn1`, the Ki was below 20 nM.
Still for that read-out and setting: the figure for `Cc1cnc(NCCc2ccccc2)c(=O)n1CC(=O)NCc1ccc2[nH]nnc2c1` is above 20 nM; for `Cc1cnc(NCCc2ccc3c(c2)OCO3)c(=O)n1CC(=O)NCc1ccc2[nH]ncc2c1` it is below 20 nM; for `Cc1cnc(NCCc2ccccc2)c(=O)n1CC(=O)NCc1ccc2c(cnn2C)c1` it is above 20 nM.
Still for that read-out and setting: next, `Cc1cc(SCC2CC2)c(N)c(=O)n1CC(=O)NCc1cnc2[nH]cnc2c1`: above 20 nM.
In the case of `Cc1cnc(NCC(F)(F)c2ccccc2)c(=O)n1CC(=O)NCc1cc2cc[nH]c2cn1`, the Ki was below 20 nM.
On to `Cc1cnc(NCC2(c3ccccn3)CC2)c(=O)n1CC(=O)NCc1ccc2[nH]ccc2c1` [drawing 16], for which the Ki is below 20 nM.
Same read-out and setting: next, `Cc1cnc(NCC(F)(F)c2ccccc2)c(=O)n1CC(=O)NCc1ccc2[nH]ncc2c1`: below 20 nM; `Cc1cnc(NCC(F)(F)c2ccccn2)c(=O)n1CC(=O)NCc1ccc2[nH]ccc2n1`: below 20 nM.
`Cc1cnc(NCC(F)(F)c2ccccn2)c(=O)n1CC(=O)NCc1cnc2[nH]cnc2c1`: the Ki was below 20 nM.
The same measure, in the same setting: the figure for `Cc1cnc(NCCc2ccccc2)c(=O)n1CC(=O)NCc1cc2nc[nH]c2cn1` is above 20 nM; for `Cc1cc2c(c(=O)n1CC(=O)NCc1ccc3[nH]ncc3c1)NC(=O)[C@H](CC1CCC1)C2` it is below 20 nM.
Take `Cc1cnc(NCC(F)(F)c2ccccn2)c(=O)n1CC(=O)NCc1cc2cc[nH]c2cn1`: the Ki is below 20 nM.
Still for that read-out and setting: next, `Cc1cc2c(c(=O)n1CC(=O)NCc1cnc3[nH]ccc3c1)NC(=O)[C@H](CC1CCC1)C2`: below 20 nM; `Cc1cc2c(c(=O)n1CC(=O)NCc1ccc3[nH]ccc3n1)NC(=O)[C@H](CC1CCC1)C2`: below 20 nM.
Same read-out and setting: next, `Cc1cnc(NCCc2ccccn2)c(=O)n1CC(=O)NCc1ccc2c(cnn2C)c1`: above 20 nM.
As for `Cc1cc(SCC2CCC2)c(N)c(=O)n1CC(=O)NCc1ccc2[nH]cnc2c1`, the Ki was below 20 nM.
The same measure, in the same setting: the figure for `Cc1cnc(NCCc2ccccc2)c(=O)n1CC(=O)NCc1cnc2[nH]nc(N)c2c1` is above 20 nM; for `Cc1cnc(NCCc2ccccc2)c(=O)n1CC(=O)NCc1cnc2[nH]cnc2c1` it is above 20 nM.
Consider `Cc1cc(SCC2CCC2)c(N)c(=O)n1CC(=O)NCc1ccc2[nH]nc(N)c2c1`, for which the Ki is above 20 nM.
The same measure, in the same setting: next, `Cc1cc2[nH]cnc2cc1CNC(=O)Cn1c(C)cnc(NCC2(c3ccccn3)CC2)c1=O` [drawing 20]: below 20 nM; `Cc1cc2c(c(=O)n1CC(=O)NCc1ccc3[nH]ccc3n1)NC(=O)[C@H](CC(C)C)C2`: below 20 nM.
The same measure, in the same setting: next, `Cc1cc2[nH]cnc2cc1CNC(=O)Cn1c(C)cnc(NCCc2ccccn2)c1=O` [drawing 19]: above 20 nM; `Cc1cnc(NCCc2ccccc2)c(=O)n1CC(=O)NCc1ccc2[nH]ncc2c1`: below 20 nM; `Cc1c(CNC(=O)Cn2c(C)cnc(NCCc3ccccc3)c2=O)cnc2[nH]ccc12`: above 20 nM.
Still for that read-out and setting: the figure for `Cc1cnc(NCC(F)(F)c2ccccc2)c(=O)n1CC(=O)NCc1ccc2[nH]nc(N)c2c1` is below 20 nM; for `Cc1cc2c(c(=O)n1CC(=O)NCc1cc3cc[nH]c3cn1)NC(=O)[C@H](CC1CCC1)C2` it is below 20 nM.
`Cc1cnc(NCC(F)(F)c2ccccc2)c(=O)n1CC(=O)NCc1ccc2[nH]cnc2c1`: the Ki was below 20 nM.

System in the next series: not given
Experiment: not given
Conditions: not given
In the case of `Cc1cc2[nH]cnc2cc1CNC(=O)Cn1c(C)cnc(NCCc2ccccn2)c1=O` [Example 33, 3-[2-(2-Pyridyl)ethylamino]-6-methyl-1-(5-methylenecarboxamidomethyl-6-methylbenzimidazolyl)-pyrazinone], the melting point lay within 175 to 184 °C.
In turn, `Cc1cnc(NCCc2ccccc2)c(=O)n1CC(=O)NCc1ccc2[nH]cc(Cl)c2c1` [Example 36, 3-(2-Phenethylamino)-6-methyl-1-(3-chloro-5-methylenecarboxamidomethylindolyl)-pyrazinone] came in with a melting point of 223 to 226 °C.
The same measure, in the same setting: next, `Cc1cnc(NCCc2ccccn2)c(=O)n1CC(=O)NCc1ccc2[nH]cc(Cl)c2c1` [Example 35, 3-[2-(2-Pyridyl)ethylamino]-6-methyl-1-(3-chloro-5-methylene-carboxamidomethylindolyl)-pyrazinone]: 224 to 226 °C; `Cc1cnc(NCC2(c3ccccn3)CC2)c(=O)n1CC(=O)NCc1ccc2[nH]cnc2c1` [Example 41, 3-[1-(2-Pyridyl)cyclopropylmethylamino]-6-methyl-1-(5-methylenecarboxamidomethyl-benzimidazolyl)-pyrazinone]: 134 to 139 °C; `Cc1cc2[nH]cnc2cc1CNC(=O)Cn1c(C)cnc(NCC2(c3ccccn3)CC2)c1=O` [Example 34, 3-[1-(2-Pyridyl)-cyclopropylmethylamino]-6-methyl-1-(5-methylenecarboxamidomethyl-6-methylbenzimidazolyl)-pyrazinone]: 146 to 154 °C.
Turning to `Cc1cnc(NCC2(c3ccccn3)CC2)c(=O)n1CC(=O)NCc1ccc2[nH]ccc2c1` [Example 39, 3-[1-(2-Pyridyl)cyclopropylmethylamino]-6-methyl-1-(5-methylenecarboxamidomethylindolyl)-pyrazinone], the melting point is 212 to 215 °C.
